Test results reported in PubChem BioAssay AID588612 (The Scripps Research Institute Molecular Screening Center, 2011).

Target: Mitogen-activated protein kinase 1 (Homo sapiens) (UniProt P28482)
Assay: phospho-ERK1/2 protein level change, either direction, late-stage follow-up, counter-screen for KLF5 inhibitor project, DLD1 cells, chemiluminescent western blot, powder samples (AID 588612)
Conditions: DLD-1 cells, p-ERK1/2 western blot, 24 h; at 10 µM

Mitogen-activated protein kinase 1 (Homo sapiens), sequence (P28482 whole entry, looked up): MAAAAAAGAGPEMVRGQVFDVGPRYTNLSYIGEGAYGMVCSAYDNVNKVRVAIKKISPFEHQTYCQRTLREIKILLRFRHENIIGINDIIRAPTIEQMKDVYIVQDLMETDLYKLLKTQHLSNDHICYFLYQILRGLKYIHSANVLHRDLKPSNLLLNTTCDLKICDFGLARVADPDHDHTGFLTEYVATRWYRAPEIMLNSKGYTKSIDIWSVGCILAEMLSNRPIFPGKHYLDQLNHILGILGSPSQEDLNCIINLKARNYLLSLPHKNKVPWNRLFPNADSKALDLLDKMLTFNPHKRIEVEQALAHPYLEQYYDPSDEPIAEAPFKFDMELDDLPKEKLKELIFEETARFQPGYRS

CN(C(=O)CNC(=O)/C=C/c1cccc(Cl)c1)C1CCS(=O)(=O)CC1
fold change: 9.41

CN(C(=O)CNC(=O)/C=C/c1cccc(Cl)c1)C1CCS(=O)(=O)C1 (stereo not drawn)
fold change: 9.88

CN(C(=O)COC(=O)/C=C/c1cccc([N+](=O)[O-])c1)C1CCS(=O)(=O)C1 (stereo not drawn)
fold change: 11
